Assays:
[1] = system: LPS-activated primary peritoneal macrophages; assay: IL-6 and TNF-α secretion by ELISA; type: cell-based, C57BL/6 mice; conditions: 10-40 µM, LPS 1 µg/ml 24 h
Method: The effects of the test samples on IL-1β, TNF-α, and IL-6 production were measured by ELISA according to the manufacturer’s instructions. In brief, 50 µl of biotinylated antibody reagent and 50 µl of supernatant were added to a stripwell plate precoated with anti-mouse IL-1β, TNF-α, or IL-6 antibodies, which was then incubated at room temperature for 2 h. After washing the plate three times with washing buffer, 100 µl of diluted streptavidin-HRP concentrate was added to each well and the plate incubated at room temperature for 30 min. […] After addition of 100 µl of stop solution to each well, the absorbance at 450 nm of each well was measured on a microplate reader.
Figure 3 Effect of compound 1h on LPS-induced secretion of IL-6 and TNF-α by J774A.1 macrophages, peritoneal macrophages, and JAWSII dendritic cells. (A) J774A.1 macrophages, (B) peritoneal macrophages, or (C) JAWSII dendritic cells (all 4 × 10^5/ml; 1 ml) were incubated for 30 min with 10-40 µM compound 1h or DMSO, then LPS (1 µg/ml) was added and incubation continued for 24 h, then IL-6 levels (left panels) and TNF-α levels (right panels) in the culture medium were measured by ELISA. The data are expressed as the mean ± SD for three separate experiments. *, **, and *** indicate a significant difference at the level of p < 0.05, p < 0.01, or p < 0.001, respectively, compared to the DMSO/LPS group.

[2] = system: NLRP3 inflammasome in LPS+ATP-activated J774A.1 macrophages; assay: NLRP3 inflammasome activation (IL-1β ELISA, caspase-1 p10 Western blot); type: cell-based, mouse; conditions: then ATP 5 mM 30 min
Method: The effects of the test samples on IL-1β, TNF-α, and IL-6 production were measured by ELISA according to the manufacturer’s instructions. In brief, 50 µl of biotinylated antibody reagent and 50 µl of supernatant were added to a stripwell plate precoated with anti-mouse IL-1β, TNF-α, or IL-6 antibodies, which was then incubated at room temperature for 2 h. After washing the plate three times with washing buffer, 100 µl of diluted streptavidin-HRP concentrate was added to each well and the plate incubated at room temperature for 30 min. The washing process was repeated, then 100 µl of a premixed tetramethylbenzidine substrate solution was added to each well and the plate incubated at room temperature in the dark for 30 min. After addition of 100 µl of stop solution to each well, the absorbance at 450 nm of each well was measured on a microplate reader.
Cells were washed twice with ice-cold phosphate-buffered saline (PBS) and lysed on ice for 5 min with lysis buffer (20 mM Tris-HCl, pH 7.5, 150 mM NaCl, 1 mM Na 2EDTA, 1 mM EGTA, 1% Triton X-100, 2.5 mM sodium pyrophosphate, 1 mM beta-glycerophosphate, 1 mM Na 3VO4, 1 µg/ml of leupeptin, 1 mM PMSF, protease inhibitor cocktail). The lysate was then centrifuged at 12,000 x g at 4 °C for 10 min and the pellet discarded. Proteins in the supernatant were separated by SDS-PAGE and electrotransferred to a PVDF membrane (EMD Millipore Corporation), which was then blocked by incubation for 1 h at room temperature in blocking buffer [(5% nonfat milk in PBS containing 0.1% Tween 20 (PBST)], then incubated for 2 h at room temperature with the primary antibody diluted in blocking buffer. After three washes in PBST, the membrane was incubated for 1 h at room temperature with an appropriate HRP-conjugated secondary antibody diluted in blocking buffer and developed using an enhanced chemiluminescence Western blot detection system (EMD Millipore Corporation).
ATP is known to activate the NLRP3 inflammasome in LPS-primed macrophages, leading to caspase-1 activation and IL-1β secretion. To examine whether compound 1h could affect NLRP3 inflammasome activation, the mouse macrophage cell line J774A.1 was used (RAW 264.7 macrophages are not suitable for studying the NLRP3 inflammasome). […]
Figure 4 Effect of compound 1h on NLRP3 inflammasome activation in LPS+ATP-activated J774A.1 macrophages. (A) J774A.1 macrophages (1 × 10^6/ml; 1 ml) or (B) peritoneal macrophages (1 × 10^5/ml; 1 ml) were incubated with 10-40 µM compound 1h or DMSO for 30 min, then LPS (1 µg/ml) was added and incubation continued for 5.5 h, then the cells were stimulated with ATP (5 mM) for an additional 30 min, then IL-1β in the culture medium was measured by ELISA (A, upper panel; B) and levels of active caspase-1 (p10) (A, lower panel) measured by Western blotting. In (C) and (D), J774A.1 macrophages (1 × 10^6/ml; 1ml) were incubated with LPS (1 µg/ml) for 5.5 h, then with 10-40 µM compound 1h or DMSO for 30 min in the continued presence of LPS, followed by stimulation with ATP (5 mM) for an additional 30 min, then IL-1β levels (C, upper panel) and IL-6 levels (D) in the culture medium were measured by ELISA and levels of active caspase-1 (p10) were measured by Western blotting (C, lower panel). […] In (E), J774A.1 macrophages (1 × 10^6/ml; 1 ml) were incubated for 30 min with DMSO or 1-40 µM compound 1h, then LPS (1 µg/ml) was added and incubation continued for 6 h, then expression of NLRP3 and proIL-1β was measured by Western blotting. […]

[3] = system: NLRP3 inflammasome in LPS + ATP-activated JAWSII cells; assay: NLRP3 inflammasome-mediated IL-1β secretion; type: cell-based, murine
[4] = system: ATP-activated LPS-primed J774A.1 macrophages; assay: PKC-α and AKT phosphorylation by Western blot; type: cell-based, murine
Method: Cells were washed twice with ice-cold phosphate-buffered saline (PBS) and lysed on ice for 5 min with lysis buffer (20 mM Tris-HCl, pH 7.5, 150 mM NaCl, 1 mM Na 2EDTA, 1 mM EGTA, 1% Triton X-100, 2.5 mM sodium pyrophosphate, 1 mM beta-glycerophosphate, 1 mM Na 3VO4, 1 µg/ml of leupeptin, 1 mM PMSF, protease inhibitor cocktail). The lysate was then centrifuged at 12,000 x g at 4 °C for 10 min and the pellet discarded. […]
In (C), LPS-primed J774A.1 macrophages (1 × 10^6/ml; 1 ml) were incubated for 30 min with 20 µM compound 1h or DMSO (vehicle) followed by ATP (5 mM) stimulation for 0-60 min, then phosphorylation of PKC-α was analyzed by Western blotting and expressed as the fold increase measured as the intensity of the PKC-α band divided by that of the actin band normalized to the corresponding value for DMSO at 0 minutes.

[5] = system: RAW 264.7 cells; assay: AlamarBlue assay for cell viability (cytotoxicity); conditions: read-out: IC50 (cytotoxicity), RAW 264.7 macrophages, 24 h treatment, 6.25-100 µM tested
[6] = J774A.1, LPS 5.5 h first, then compound 10-40 µM 30 min
[7] = J774A.1, compound 10-40 µM 30 min before LPS 5.5 h

What does the source list for O=c1cc(O)cc(/C=C/C=C/C=C/C=C/c2[nH]ccc2Cl)o1 [compound 1h]?
LPS-induced IL-6 secretion [1]: reduced secretion of IL-6 and TNF-α; LPS-induced TNF-α secretion [1]: reduced secretion of IL-6 and TNF-α; Caspase-1 activation (p10) [2, 6]: not caspase-1 activation; IL-1β secretion [2, 6]: inhibited the LPS-induced increase in IL-1β secretion; IL-6 secretion [2, 6]: had no significant effect on IL-6 secretion; Generation of active caspase-1 (p10) [2, 7]: significantly inhibited; IL-1β secretion [2, 7]: significantly inhibited IL-1β secretion; NLRP3 inflammasome-mediated IL-1β secretion [3]: reduced NLRP3 inflammasome-mediated interleukin-1β (IL-1β) secretion; ATP-induced PKC-α phosphorylation ([4]; LPS-primed J774A.1, 20 µM 30 min, ATP 5 mM 0-60 min): significant inhibition of ATP-induced PKC-α phosphorylation at 20-60 min; ATP-induced AKT phosphorylation ([4]; LPS-primed macrophages (data not shown)): did not reduce ATP-induced AKT phosphorylation; IC50 [5]: > 100 µM

From article PMC3792051, “Polyenylpyrrole Derivatives Inhibit NLRP3 Inflammasome Activation and Inflammatory Mediator Expression by Reducing Reactive Oxygen Species Production and Mitogen-Activated Protein Kinase Activation” (PLoS ONE, 2013)
